Results from USRE38825E1, “Glyphosate tolerant plants” (Monsanto Technology LLC, priority 1990, dated 2005).

Target: LBAA glyphosate oxidoreductase variant v1w2w3 (GLY84, LYS153, HIS334) (Ochrobactrum sp. G-1, UniProt D2KI28, S2A/S84G)
Experiment: Kinetic analysis of domain switches, clone v1w2w3
Format: biochemical, bacterial isolate LBAA (Pseudomonas strain LBAA)
Conditions: substrate glyphosate
Method: The mutagenesis procedure used was that of Mn++-poisoned PCR and the template was a linearized glyphosate oxidoreductase gene plasmid containing the synthetic glyphosate oxidoreductase gene (SEQ ID NO:8). The oligonucleotide primers used were homologous to regions in the vector and flanking the glyphosate oxidoreductase gene. The PCR conditions employed were as follows: 1 minute at 94° C., 2 minutes at 55° C., and 3 minutes at 72° C. and with 35 cycles. A 5:1 ratio of dCTP+dGTP+TTP to dATP was used. The reactions contained MnCl2 at 125, 250, 375, or 500 μM. After the reaction, the amplified product was recloned into a vector containing a weak E. coli promoter. This vector was a pBR327 derivative containing the araBAD promoter and suitable cloning sites. […] Growth rates were determined by measuring A550 over a 96 hour period. […] Protein concentrations were determined using the Bio-Rad protein dye-binding assay. […] Ten minutes was determined to be the optimal time for the enzyme assay using 10 μg lysate. […] Enzyme activity was determined from the amount of glyoxylate-DNPH adduct formed by measuring A520 against a standard of glyoxylate. […] The Km and Vmax were determined from Lineweaver Burk, Eadie-Hofstee and hyperbolic kinetic plots. […]

O=C(O)CNCP(=O)(O)O [glyphosate, N-phosphonomethyl-glycine]
VmKm: 0.027
